Article PMC5355811 (Nature Communications, 2017)
Where two headings read alike, the source gives them in different places.

Assays:
Format in all cases: cell-based
[1] = test system: PC9 T790M cells (T790M/del19); assay: CellTiter-Glo cell viability assay, PC9 T790M; conditions: Table 1d, ALK–TKIs; 72 h; read-out: IC50, PC9 T790M
Procedure: (§1) Three-day cell viability assays were carried out by plating 2,000, 1,500 and 2,000 cells per well of Ba/F3, PC9 or MGH121, respectively, into black transparent-bottom 96-well plates. On the same day for Ba/F3 cells and the following day for PC9 and MGH121 cells, the cells were treated with each TKI across a 10-dose range from 0.3 nmol l^−1 to 10 μmol l^−1. After 72 h of drug treatment, cell viability was measured using the CellTiter-Glo assay (Promega).

[2] = test system: Ba/F3 cells expressing EGFR-T790M/L858R; assay: CellTiter-Glo cell viability assay, Ba/F3 EGFR-T790M/L858R; conditions: Mus musculus, BaF3, 72 h
Procedure: as §1

[3] = test system: Ba/F3 cells expressing EGFR-T790M/del19; assay: CellTiter-Glo cell viability assay, Ba/F3 EGFR-T790M/del19; conditions: Mus musculus, BaF3, 72 h
Procedure: as §1

[4] = test system: Ba/F3 cells expressing EGFR-del19; assay: CellTiter-Glo cell viability assay, Ba/F3 EGFR-del19; conditions: Mus musculus, BaF3, 72 h
Procedure: as §1

[5] = test system: Ba/F3 cells expressing EGFR-C797S/T790M/del19; assay: CellTiter-Glo cell viability assay, Ba/F3 EGFR-C797S/T790M/del19; conditions: for IC50: Mus musculus, BaF3, 72 h, 72 h
Procedure: as §1

[6] = test system: Ba/F3 cells expressing EGFR-L858R; assay: CellTiter-Glo cell viability assay, Ba/F3 EGFR-L858R; conditions: Mus musculus, BaF3, 72 h
Procedure: as §1

PC9 parent cells (del19) = assay: CellTiter-Glo cell viability assay, PC9 parent; conditions: Table 1d, ALK–TKIs; 72 h; read-out: IC50, PC9 parent
Procedure: as §1

[7] = test system: Ba/F3 cells expressing EGFR-C797S/T790M/L858R; assay: CellTiter-Glo cell viability assay, Ba/F3 EGFR-C797S/T790M/L858R; conditions: Mus musculus, BaF3, 72 h
Procedure: as §1

[8] = test system: PC9 triple-mutant cells (C797S/T790M/del19); assay: CellTiter-Glo cell viability assay, PC9 triple mutant; conditions: Table 1d, ALK–TKIs; 72 h; read-out: IC50, PC9 triple
Procedure: as §1

[9] = test system: Ba/F3 cells of EGFR-T790M/del19; assay: Drug sensitivity screening at 100 nM, Ba/F3 EGFR-T790M/del19; conditions: 72 h, DMSO = 100; for Relative cell viability (% of DMSO control): 100 nM; for viability at 0.1 µM: Mus musculus, BaF3, 72 h, 100 nM inhibitor, mean of three independent experiments (Fig. 1a data), read-out: Relative cell viability (ratio to DMSO control), del19/T790M
Procedure: (§2) After the incubation, cell viability was measured using CellTiter-Glo assay. The relative cell viability was calculated as a ratio of each value to that of the DMSO control.

[10] = test system: Ba/F3 cells of EGFR-C797S/T790M/del19; assay: Drug sensitivity screening at 100 nM, Ba/F3 EGFR-C797S/T790M/del19; conditions: Mus musculus, BaF3, 72 h, 100 nM inhibitor, 72 h, DMSO = 100; mean of three independent experiments (Fig. 1a data)
Procedure: as §2

[11] = test system: Ba/F3 cells of EGFR-del19; assay: Drug sensitivity screening at 100 nM, Ba/F3 EGFR-del19; conditions: 72 h, DMSO = 100; for Relative cell viability (% of DMSO control) in del19 Ba/F3 cells: 100 nM; for viability at 0.1 µM: Mus musculus, BaF3, 72 h, 100 nM inhibitor, mean of three independent experiments (Fig. 1a data), read-out: Relative cell viability (ratio to DMSO control), del19
Procedure: as §2

[12] = Supplementary Fig. 8e, read-out: IC50, Ba/F3 T790M/L858R
[13] = Fig. 3c, read-out: IC50, Ba/F3 T790M/del19
[14] = Fig. 3c, read-out: IC50, Ba/F3 Del19
[15] = Supplementary Fig. 8e, read-out: IC50, Ba/F3 L858R

Row | SMILES | IC50 [2, 12] | IC50 [4, 14] | IC50 ([5]; Fig. 3b,c) | IC50 [6, 15] | Relative cell viability (% of DMSO control) ([9]; experiment 1) | Relative cell viability (% of DMSO control) ([9]; experiment 2) | Relative cell viability (% of DMSO control) ([9]; experiment 3) | viability at 0.1 µM [9] | viability at 0.1 µM [10] | Relative cell viability (% of DMSO control) in del19 Ba/F3 cells ([11]; experiment 1) | Relative cell viability (% of DMSO control) in del19 Ba/F3 cells ([11]; experiment 2) | Relative cell viability (% of DMSO control) in del19 Ba/F3 cells ([11]; experiment 3) | viability at 0.1 µM [11] | other results
1 | Cc1cc(C(=O)Nc2nc3cccc(Cl)c3n2[C@@H]2CCCCN(C(=O)/C=C/CN(C)C)C2)ccn1 [EGF-816] |  |  |  |  |  |  |  |  |  |  |  |  |  | IC50 ([2]; Table 1b, read-out: IC50, Ba/F3-EGFR-T790M/L858R): 15.5 nM; IC50 ([3]; Table 1a, read-out: IC50, Ba/F3-EGFR-T790M/del19): 18.5 nM; IC50 ([4]; Table 1a, read-out: IC50, Ba/F3-EGFR-Del19): 2.9 nM; IC50 ([5]; Table 1a, read-out: IC50, Ba/F3-EGFR-C797S/T790M/del19): 1410 nM; IC50 ([6]; Table 1b, read-out: IC50, Ba/F3-EGFR-L858R): 7.7 nM; IC50 ([7]; Table 1b, read-out: IC50, Ba/F3-EGFR-C797S/T790M/L858R): 2280 nM
2 | CCCS(=O)(=O)Nc1ccc(F)c(C(=O)c2c[nH]c3ncc(-c4ccc(Cl)cc4)cc23)c1F [Vemurafenib, vemurafenib] |  |  |  |  | 92.0888 | 107.966 | 104.772 | 102% | 96.8% | 102.039 | 116.573 | 106.065 | 108% | 
3 | COc1cc2nccc(Oc3ccc(NC(=O)C4(C(=O)Nc5ccc(F)cc5)CC4)cc3)c2cc1OC [XL184] |  |  |  |  | 91.4569 | 111.038 | 110.02 | 104% | 137% | 97.6803 | 120.752 | 111.655 | 110% | 
4 | CC(=O)O[C@H]1C(=O)[C@@]2(C)[C@H]([C@H](OC(=O)c3ccccc3)[C@]3(O)C[C@H](OC(=O)[C@H](O)[C@@H](NC(=O)c4ccccc4)c4ccccc4)C(C)=C1C3(C)C)[C@]1(OC(C)=O)CO[C@@H]1C[C@@H]2O [paclitaxel] |  |  |  |  | 72.6289 | 87.6485 | 88.6746 | 83% | 95.1% | 51.8383 | 52.2569 | 51.6533 | 51.9% | 

More lines, main results first:

Row | IC50 [2, 12] | IC50 [4, 14] | IC50 ([5]; Fig. 3b,c) | IC50 [6, 15] | SMILES | Relative cell viability (% of DMSO control) ([9]; experiment 1) | Relative cell viability (% of DMSO control) ([9]; experiment 2) | Relative cell viability (% of DMSO control) ([9]; experiment 3) | viability at 0.1 µM [9] | viability at 0.1 µM [10] | Relative cell viability (% of DMSO control) in del19 Ba/F3 cells ([11]; experiment 1) | Relative cell viability (% of DMSO control) in del19 Ba/F3 cells ([11]; experiment 2) | Relative cell viability (% of DMSO control) in del19 Ba/F3 cells ([11]; experiment 3) | viability at 0.1 µM [11] | other results
5 | 36 nM | 36.9 nM | < 100 nM | 92.1 nM | COc1cc(N2CCC(N(C)C)CC2)ccc1Nc1ncc(Cl)c(Nc2ccccc2P(C)(C)=O)n1 [AP26113-analog] |  |  |  |  |  |  |  |  |  | IC50 [1]: 89.3 nM; IC50 [3, 13]: 139 nM; change of IC50 by combination with cetuximab, triple-del19 Ba/F3 cells ([5]; with or without cetuximab 10 μg ml^−1, 72 h): approximately three-fold decrease of IC50; IC50 (PC9 parent cells (del19)): 46.2 nM; IC50 ([7]; Supplementary Fig. 8e): 69.2 nM; IC50 [8]: 195 nM
6 | 1690 nM | 450 nM | 1510 nM | 948 nM | COc1cc(N2CCC(N3CCN(C)CC3)CC2)ccc1Nc1ncnc(Nc2ccccc2S(=O)(=O)C(C)C)n1 [ASP3026] | 93.2109 | 112.991 | 110.516 | 106% | 126% | 92.7195 | 100.941 | 101.38 | 98.3% | IC50 [3, 13]: 2160 nM; IC50 ([7]; Supplementary Fig. 8e): 2150 nM
7 | 685 nM | 524 nM | 780 nM | 1160 nM | Cc1cc(Nc2ncc(Cl)c(Nc3ccccc3S(=O)(=O)C(C)C)n2)c(OC(C)C)cc1C1CCNCC1 [Ceritinib, ceritinib] |  |  |  |  | 135% |  |  |  | 96.5% | 
